The values below come from ChEMBL document CHEMBL5360532, “Current scenario of quinolone hybrids with potential antibacterial activity against ESKAPE pathogens” (Eur J Med Chem, 2023).

Converted amounts (≈) assume the structure as drawn.

The subject of series [1] is Escherichia coli. In words: Antibacterial activity against Escherichia coli UTI 189 assessed as bacterial growth inhibition measured after 20 hrs by microdilution assay. The format is functional. (Dilution methods test growth across graded concentrations, often in twofold steps.)
Series [2] deals with Escherichia coli. The series can be described thus: Antibacterial activity against Escherichia coli CFT 073 assessed as bacterial growth inhibition measured after 20 hrs by microdilution assay. The format is functional.
For series [3], the system named is Staphylococcus aureus. The series can be described thus: Antibacterial activity against methicillin sensitive Staphylococcus aureus clinical isolate 15 assessed as bacterial growth inhibition measured after 18 to 20 hrs by broth microdilution assay. Conditions: time 18-20 hrs. The format is functional.
For series [4], the system named is Staphylococcus aureus. The series can be described thus: Antibacterial activity against clinical isolate methicillin sensitive Staphylococcus aureus BAA 976 assessed as bacterial growth inhibition measured after 18 to 20 hrs by broth microdilution assay. The class given is functional. Conditions: time 18-20 hrs.
For series [5], the system named is Staphylococcus aureus. The series can be described thus: Antibacterial activity against clinical isolate vancomycin intermediate resistant Staphylococcus aureus ATCC 700699 assessed as bacterial growth inhibition measured after 18 to 20 hrs by broth microdilution assay. The note with it: time 18-20 hrs. The format is functional.
Series [6] deals with Staphylococcus aureus. The series can be described thus: Antibacterial activity against clinical isolate vancomycin intermediate resistant Staphylococcus aureus HIP 5827 assessed as bacterial growth inhibition measured after 18 to 20 hrs by broth microdilution assay. The format is functional. The note with it: time 18-20 hrs.
The test system of series [7] is Staphylococcus aureus. The series can be described thus: Antibacterial activity against methicillin resistant Staphylococcus aureus clinical isolate 18-2 assessed as bacterial growth inhibition measured after 18 to 20 hrs by broth microdilution assay. The class given is functional. Conditions: time 18-20 hrs.
Series [8] can be described thus: Microsomal stability in mouse plasma assessed as half life measured upto 60 mins in presence of NADPH by HPLC analysis. The class given is ADME, cell-free.
The subject of series [9] is Staphylococcus aureus. In words: Antibacterial activity against clinical isolate methicillin resistant Staphylococcus aureus ATCC 33591 assessed as bacterial growth inhibition measured after 18 to 20 hrs by broth microdilution assay. The class given is functional. Conditions: time 18-20 hrs.
Series [10] concerns Staphylococcus aureus. In words: Antibacterial activity against clinical isolate methicillin sensitive Staphylococcus aureus BAA 1708 assessed as bacterial growth inhibition measured after 18 to 20 hrs by broth microdilution assay. The class given is functional. Conditions: time 18-20 hrs.
For series [11], the system named is Staphylococcus aureus. In words: Antibacterial activity against clinical isolate methicillin sensitive Staphylococcus aureus ATCC 29213 assessed as bacterial growth inhibition measured after 18 to 20 hrs by broth microdilution assay. The format is functional. The note with it: time 18-20 hrs.
Series [12] has as its system Staphylococcus aureus. In words: Antibacterial activity against clinical isolate methicillin resistant Staphylococcus aureus ATCC 43300 assessed as bacterial growth inhibition measured after 18 to 20 hrs by broth microdilution assay. The class given is functional. Conditions: time 18-20 hrs.
Series [13] deals with Staphylococcus aureus. The series can be described thus: Antibacterial activity against methicillin sensitive Staphylococcus aureus clinical isolate 18-3 assessed as bacterial growth inhibition measured after 18 to 20 hrs by broth microdilution assay. The class given is functional. Conditions: time 18-20 hrs.
The nature of series [14]: Microsomal stability in mouse liver microsomes assessed as half life measured upto 60 mins in presence of NADPH by HPLC analysis. The format is ADME, Microsome. For orientation: Liver microsomes are a subcellular fraction often used to study metabolism.
Series [15] concerns Staphylococcus aureus. In words: Antibacterial activity against clinical isolate vancomycin intermediate resistant Staphylococcus aureus HIP 5836 assessed as bacterial growth inhibition measured after 18 to 20 hrs by broth microdilution assay. The format is functional. The note with it: time 18-20 hrs.
Series [16] concerns Staphylococcus aureus. In words: Antibacterial activity against Staphylococcus aureus ATCC 25923 assessed as bacterial growth inhibition measured after 16 hrs by broth microdilution assay. The format is functional.
In series [17] the test system is Staphylococcus aureus. The series can be described thus: Potency index, ratio of ciprofloxacin MIC to test compound MIC for antimicrobial activity against Staphylococcus aureus ATCC 25923 assessed as bacterial growth inhibition measured after 24 hrs by agar dilution assay. The format is functional. On the technique in general: Agar dilution tests growth on a series of plates holding different concentrations.

In series [18] the test system is Enterobacter cloacae. The series can be described thus: Antibacterial activity against fosfomycin resistant Enterobacter cloacae assessed as bacterial growth inhibition measured after 24 hrs by agar dilution assay. The class given is functional.
Series [19] deals with Escherichia coli. The series can be described thus: Antibacterial activity against Escherichia coli ATCC 25922 assessed as bacterial growth inhibition measured after 24 hrs by agar dilution assay. The class given is functional.
Series [20] has as its system Staphylococcus aureus. In words: Antibacterial activity against Staphylococcus aureus ATCC 25923 assessed as bacterial growth inhibition measured after 24 hrs by agar dilution assay. The format is functional.
In series [21] the test system is Pseudomonas aeruginosa. The series can be described thus: Antibacterial activity against imipenem resistant Pseudomonas aeruginosa VIM-2 assessed as bacterial growth inhibition measured after 24 hrs by agar dilution assay. The format is functional.
The subject of series [22] is Staphylococcus aureus. The series can be described thus: Antibacterial activity against Staphylococcus aureus assessed as bacterial growth inhibition measured after 24 hrs by agar cup diffusion assay. The format is functional.
The test system of series [23] is Staphylococcus aureus. In words: Potency index, ratio of ciprofloxacin MIC to test compound MIC for antimicrobial activity against Staphylococcus aureus assessed as bacterial growth inhibition measured after 24 hrs by agar cup diffusion assay. The class given is functional.
In series [24] the test system is Escherichia coli. In words: Antibacterial activity against Escherichia coli assessed as bacterial growth inhibition measured after 24 hrs by agar cup diffusion assay. The class given is functional.
In series [25] the test system is Pseudomonas aeruginosa. In words: Antibacterial activity against Pseudomonas aeruginosa assessed as bacterial growth inhibition measured after 24 hrs by agar cup diffusion assay. The format is functional.
Series [26] has as its system Staphylococcus aureus. The series can be described thus: Potency index, ratio of ciprofloxacin MIC to test compound MIC for antibacterial activity against Staphylococcus aureus assessed as bacterial growth inhibition by broth microdilution assay. The format is functional.
Series [27] deals with Staphylococcus aureus. The series can be described thus: Antibacterial activity against Staphylococcus aureus assessed as bacterial growth inhibition by broth microdilution assay. The format is functional.
In series [28] the test system is Enterococcus faecalis. The series can be described thus: Antibacterial activity against Enterococcus faecalis ATCC 29212 assessed as bacterial growth inhibition measured after 24 hrs by agar dilution assay. The format is functional.
Series [29] deals with Escherichia coli. The series can be described thus: Antibacterial activity against ESBL-producing Escherichia coli assessed as bacterial growth inhibition measured after 24 hrs by agar dilution assay. The class given is functional.
Series [30] has as its system Salmonella typhimurium. The series can be described thus: Antibacterial activity against Salmonella typhi assessed as bacterial growth inhibition measured after 24 hrs by agar dilution assay. The format is functional, Salmonella enterica subsp. enterica serovar […]. Conditions: Salmonella enterica.
Series [31] concerns Citrobacter. The series can be described thus: Antibacterial activity against Citrobacter assessed as bacterial growth inhibition measured after 24 hrs by agar dilution assay. The format is functional.
Series [32] concerns Serratia marcescens. In words: Antibacterial activity against Serratia marcescens assessed as bacterial growth inhibition measured after 24 hrs by agar dilution assay. The class given is functional.
Series [33] has as its system Enterococcus faecalis. In words: Antibacterial activity against vancomycin resistant Enterococcus faecalis assessed as bacterial growth inhibition measured after 24 hrs by agar dilution assay. The class given is functional.
Series [34] relates to Staphylococcus aureus. The series can be described thus: Antibacterial activity against Staphylococcus aureus AUMC B-73 assessed as bacterial growth inhibition by agar cup diffusion method. The format is functional.
Series [35] relates to Staphylococcus aureus. In words: Antibacterial activity against Staphylococcus aureus assessed as bacterial growth inhibition by agar cup diffusion method. The format is functional.

What is called MIC is the lowest concentration found to suppress growth. Consider `O=C(NCCCCCC(=O)N1CCN(c2cc3c(cc2F)c(=O)c(C(=O)O)cn3C2CC2)CC1)c1cc(O)c(O)c(C(=O)N[C@H]2COC(=O)[C@@H](NC(=O)c3cccc(O)c3O)COC(=O)[C@@H](NC(=O)c3cccc(O)c3O)COC2=O)c1`, for which the MIC in series [1] and in series [2] was 0.1 µg/mL (≈ 0.0877 µM) each time.
Usually half-life stands for the time needed for the level to fall by half in the phase considered. Take `CCCCCc1nc2ccccc2c(=O)n1NC(=O)c1c(O)c2ccccc2n(CC)c1=O`: the MIC in series [3], in [4], in series [5], in series [6], in [7] and in series [9] was 4 µg/mL (≈ 8.96 µM) in each case. Moreover, the MIC in series [10], in [11], in [12], in [13] and in series [15] was 4 µg/mL (≈ 8.96 µM) each time. The half-life is 24.5 min in [8] and over 373 min in [14].
Consider `COc1cccc2ccc(C(=O)N3CCN(c4cc5c(cc4F)c(=O)c(C(=O)O)cn5C4CC4)CC3)nc12`, for which, in [16], the MIC stood at 0.2 µg/mL (≈ 0.387 µM). The Ratio in series [17] came to 2.
In the case of `CCOP(=O)(OCC)C(Nc1ncc(-c2cc3ccccc3oc2=O)s1)c1cc2ccccc2[nH]c1=O` (configuration not stated), the MIC in series [18], in series [19], in [20] and in series [21] was 0.25 µg/mL (≈ 0.465 µM) each time.
As for `O=C(/C=C/c1cccc(Cl)c1)c1ccc(NC(=O)N2CCN(c3cc4c(cc3F)c(=O)c(C(=O)O)cn4C3CC3)CC2)cc1`, the MIC in series [22], in series [24] and in series [25] was 0.06 µg/mL (≈ 0.0976 µM) throughout. In addition, the Ratio in [23] is listed as 54.
Turning to `O=C(CN1CCN(c2cc3c(cc2F)c(=O)c(C(=O)O)cn3C2CC2)CC1)N/N=C/C=C/c1c(F)cccc1F`, the Ratio entry in series [26] was “>=4”. The MIC in series [27] was at most 0.125 µg/mL.
As for `CCOP(=O)(OCC)C(Nc1ncc(-c2cc3ccccc3oc2=O)s1)c1cc2cccc(C)c2[nH]c1=O` (configuration not stated), the MIC in [18], in series [28], in [29], in [30], in [31] and in series [32] was 0.25 µg/mL (≈ 0.453 µM) each time. In addition, the MIC in [33] and in series [21] was 0.25 µg/mL (≈ 0.453 µM) throughout.
Regarding `C/C(=N\O)c1ccc(NC(=O)C(C)N2CCN(c3cc4c(cc3F)c(=O)c(C(=O)O)cn4C3CC3)CC2)cc1` (configuration not stated), the MIC came out at 0.2 µg/mL (≈ 0.373 µM) in series [34] and 0.38 µg/mL (≈ 0.71 µM) in series [35].
